Common to all, as to assay type: binding
One assay addresses T1, JAK1 (Homo sapiens, UniProt P23458).
T1 construct: endogenous in cells; host or cells: Molt4 (ATCC CRL-1582) and Ramos (ATCC CRL-1596) cells; mixed lysate 1:2
Description: Kinobeads assay with immunodetection, JAK1. The settings on record: for IC50: Kinobeads assay, mixed Molt4/Ramos lysate, read-out: Inhibition values (IC50) JAK1. In a few lines:
(§1)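 Steps: compound serially diluted 1:3 in DMSO; added with kinobeads to mixed Molt4/Ramos lysate; 3 h cold incubation; wash; SDS elution; antibody dot blot quantitation of each kinase; IC50 fitting.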

In the next assay the target is T2, JAK2 (Homo sapiens, UniProt O60674).
T2 construct: endogenous in cells; host or cells: Molt4 (ATCC CRL-1582) and Ramos (ATCC CRL-1596) cells; mixed lysate 1:2
Nature of the assay: Kinobeads assay with immunodetection, JAK2. The settings on record: mixed Molt4/Ramos lysate, read-out: Inhibition values (IC50) JAK2. In a few lines:
as §1

Another assay has as its target T3, JAK3 (Homo sapiens, UniProt P52333).
T3 construct: endogenous in cells; host or cells: Molt4 (ATCC CRL-1582) and Ramos (ATCC CRL-1596) cells; mixed lysate 1:2
T3 sequence (P52333 1-1124): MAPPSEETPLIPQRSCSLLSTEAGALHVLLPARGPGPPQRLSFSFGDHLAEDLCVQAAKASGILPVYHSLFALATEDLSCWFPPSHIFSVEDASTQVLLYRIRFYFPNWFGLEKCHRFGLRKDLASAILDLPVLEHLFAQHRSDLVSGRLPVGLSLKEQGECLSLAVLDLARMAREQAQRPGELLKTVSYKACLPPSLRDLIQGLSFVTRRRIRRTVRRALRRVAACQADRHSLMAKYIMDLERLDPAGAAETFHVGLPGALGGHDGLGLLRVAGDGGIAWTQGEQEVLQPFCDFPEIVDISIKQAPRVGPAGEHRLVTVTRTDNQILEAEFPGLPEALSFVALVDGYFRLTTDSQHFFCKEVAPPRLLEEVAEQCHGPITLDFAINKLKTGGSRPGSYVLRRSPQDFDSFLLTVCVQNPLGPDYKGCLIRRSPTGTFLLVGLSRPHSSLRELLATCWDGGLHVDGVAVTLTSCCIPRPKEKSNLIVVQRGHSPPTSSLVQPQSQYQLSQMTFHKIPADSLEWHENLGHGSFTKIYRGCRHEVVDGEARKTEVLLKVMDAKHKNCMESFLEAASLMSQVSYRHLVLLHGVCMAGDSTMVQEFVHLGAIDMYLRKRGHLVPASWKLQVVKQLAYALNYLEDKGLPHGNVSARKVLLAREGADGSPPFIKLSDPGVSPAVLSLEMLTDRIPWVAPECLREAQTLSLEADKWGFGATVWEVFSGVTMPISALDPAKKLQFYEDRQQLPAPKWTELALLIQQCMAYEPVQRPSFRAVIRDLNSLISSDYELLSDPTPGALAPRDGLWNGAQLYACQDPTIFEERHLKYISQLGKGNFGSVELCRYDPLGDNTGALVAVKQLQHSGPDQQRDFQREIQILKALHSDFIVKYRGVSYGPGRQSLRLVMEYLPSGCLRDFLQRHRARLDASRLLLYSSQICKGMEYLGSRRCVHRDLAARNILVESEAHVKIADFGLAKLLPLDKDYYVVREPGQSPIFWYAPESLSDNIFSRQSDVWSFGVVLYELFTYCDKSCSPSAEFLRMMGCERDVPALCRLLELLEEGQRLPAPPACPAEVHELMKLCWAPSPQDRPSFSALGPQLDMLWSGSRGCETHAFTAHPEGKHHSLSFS
Nature of the assay: Kinobeads assay with immunodetection, JAK3. The settings on record: for IC50: Kinobeads assay, mixed Molt4/Ramos lysate, read-out: Inhibition values (IC50) JAK3. In a few lines: as §1

Another assay has as its target T4, TYK2 (Homo sapiens, UniProt P29597).
T4 construct: endogenous in cells; host or cells: Molt4 (ATCC CRL-1582) and Ramos (ATCC CRL-1596) cells; mixed lysate 1:2
Nature of the assay: Kinobeads assay with immunodetection, TYK2. Conditions: for IC50: Kinobeads assay, mixed Molt4/Ramos lysate, read-out: Inhibition values (IC50) Tyk2. A digest of the protocol: as §1

The structures appear in SMILES notation.

T1 sequence (P23458 whole entry): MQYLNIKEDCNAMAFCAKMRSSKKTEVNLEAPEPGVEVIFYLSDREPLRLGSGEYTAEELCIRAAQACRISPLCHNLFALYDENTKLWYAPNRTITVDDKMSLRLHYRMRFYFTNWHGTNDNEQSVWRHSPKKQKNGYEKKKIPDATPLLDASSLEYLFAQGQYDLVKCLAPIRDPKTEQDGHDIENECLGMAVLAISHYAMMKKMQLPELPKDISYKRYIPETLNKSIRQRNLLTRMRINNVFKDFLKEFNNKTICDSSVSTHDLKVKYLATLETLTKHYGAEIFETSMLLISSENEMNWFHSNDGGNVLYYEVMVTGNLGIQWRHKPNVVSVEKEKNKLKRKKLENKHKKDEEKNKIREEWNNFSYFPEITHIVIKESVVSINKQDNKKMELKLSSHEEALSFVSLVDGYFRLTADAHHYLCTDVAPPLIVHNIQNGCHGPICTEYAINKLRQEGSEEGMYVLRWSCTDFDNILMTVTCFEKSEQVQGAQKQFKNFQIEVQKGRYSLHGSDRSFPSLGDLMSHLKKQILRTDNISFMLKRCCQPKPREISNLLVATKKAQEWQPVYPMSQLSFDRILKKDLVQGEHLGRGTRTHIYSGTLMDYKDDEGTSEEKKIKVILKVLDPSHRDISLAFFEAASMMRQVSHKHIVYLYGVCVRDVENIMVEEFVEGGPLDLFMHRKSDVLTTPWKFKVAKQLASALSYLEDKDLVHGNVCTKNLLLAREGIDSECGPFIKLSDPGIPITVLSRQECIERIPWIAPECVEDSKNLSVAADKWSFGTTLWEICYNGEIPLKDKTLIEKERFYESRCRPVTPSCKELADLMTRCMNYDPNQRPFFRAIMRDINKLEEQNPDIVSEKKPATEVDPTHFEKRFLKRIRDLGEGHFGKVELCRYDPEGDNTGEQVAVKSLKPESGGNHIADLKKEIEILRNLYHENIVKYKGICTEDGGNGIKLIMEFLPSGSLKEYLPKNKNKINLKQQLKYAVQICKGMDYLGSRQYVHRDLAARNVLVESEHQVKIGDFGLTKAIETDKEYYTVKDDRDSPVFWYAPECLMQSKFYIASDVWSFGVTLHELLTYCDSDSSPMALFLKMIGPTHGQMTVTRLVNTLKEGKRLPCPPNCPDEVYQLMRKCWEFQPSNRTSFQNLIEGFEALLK
T2 sequence (O60674 whole entry): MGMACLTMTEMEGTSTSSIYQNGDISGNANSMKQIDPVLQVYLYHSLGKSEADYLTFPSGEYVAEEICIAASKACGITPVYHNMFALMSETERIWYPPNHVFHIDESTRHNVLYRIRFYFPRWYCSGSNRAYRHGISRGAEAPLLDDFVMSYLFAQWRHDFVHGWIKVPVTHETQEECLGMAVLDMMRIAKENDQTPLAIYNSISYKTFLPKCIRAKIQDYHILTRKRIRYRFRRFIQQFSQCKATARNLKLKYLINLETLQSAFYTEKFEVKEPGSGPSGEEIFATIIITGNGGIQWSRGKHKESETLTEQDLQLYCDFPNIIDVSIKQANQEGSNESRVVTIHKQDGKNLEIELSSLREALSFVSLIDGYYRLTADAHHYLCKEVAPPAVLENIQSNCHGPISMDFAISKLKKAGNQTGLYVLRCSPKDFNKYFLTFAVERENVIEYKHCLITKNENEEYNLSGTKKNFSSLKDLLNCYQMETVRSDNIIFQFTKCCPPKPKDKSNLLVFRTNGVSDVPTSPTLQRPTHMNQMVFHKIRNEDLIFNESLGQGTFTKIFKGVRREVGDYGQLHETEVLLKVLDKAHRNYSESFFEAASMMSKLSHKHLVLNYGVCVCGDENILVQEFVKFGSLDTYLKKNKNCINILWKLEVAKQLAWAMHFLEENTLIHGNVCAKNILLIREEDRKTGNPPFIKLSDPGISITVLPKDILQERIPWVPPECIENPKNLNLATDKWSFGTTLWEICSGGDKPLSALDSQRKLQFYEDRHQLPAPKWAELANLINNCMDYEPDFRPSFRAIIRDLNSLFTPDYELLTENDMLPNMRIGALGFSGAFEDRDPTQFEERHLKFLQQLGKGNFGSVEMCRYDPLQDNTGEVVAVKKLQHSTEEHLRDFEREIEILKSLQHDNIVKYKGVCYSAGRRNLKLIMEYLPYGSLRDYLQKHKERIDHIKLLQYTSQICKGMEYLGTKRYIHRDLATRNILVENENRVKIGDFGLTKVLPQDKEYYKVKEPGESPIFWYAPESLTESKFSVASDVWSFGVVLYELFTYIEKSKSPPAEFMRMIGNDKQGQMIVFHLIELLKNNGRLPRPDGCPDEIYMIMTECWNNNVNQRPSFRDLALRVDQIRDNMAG
T4 sequence (P29597 whole entry): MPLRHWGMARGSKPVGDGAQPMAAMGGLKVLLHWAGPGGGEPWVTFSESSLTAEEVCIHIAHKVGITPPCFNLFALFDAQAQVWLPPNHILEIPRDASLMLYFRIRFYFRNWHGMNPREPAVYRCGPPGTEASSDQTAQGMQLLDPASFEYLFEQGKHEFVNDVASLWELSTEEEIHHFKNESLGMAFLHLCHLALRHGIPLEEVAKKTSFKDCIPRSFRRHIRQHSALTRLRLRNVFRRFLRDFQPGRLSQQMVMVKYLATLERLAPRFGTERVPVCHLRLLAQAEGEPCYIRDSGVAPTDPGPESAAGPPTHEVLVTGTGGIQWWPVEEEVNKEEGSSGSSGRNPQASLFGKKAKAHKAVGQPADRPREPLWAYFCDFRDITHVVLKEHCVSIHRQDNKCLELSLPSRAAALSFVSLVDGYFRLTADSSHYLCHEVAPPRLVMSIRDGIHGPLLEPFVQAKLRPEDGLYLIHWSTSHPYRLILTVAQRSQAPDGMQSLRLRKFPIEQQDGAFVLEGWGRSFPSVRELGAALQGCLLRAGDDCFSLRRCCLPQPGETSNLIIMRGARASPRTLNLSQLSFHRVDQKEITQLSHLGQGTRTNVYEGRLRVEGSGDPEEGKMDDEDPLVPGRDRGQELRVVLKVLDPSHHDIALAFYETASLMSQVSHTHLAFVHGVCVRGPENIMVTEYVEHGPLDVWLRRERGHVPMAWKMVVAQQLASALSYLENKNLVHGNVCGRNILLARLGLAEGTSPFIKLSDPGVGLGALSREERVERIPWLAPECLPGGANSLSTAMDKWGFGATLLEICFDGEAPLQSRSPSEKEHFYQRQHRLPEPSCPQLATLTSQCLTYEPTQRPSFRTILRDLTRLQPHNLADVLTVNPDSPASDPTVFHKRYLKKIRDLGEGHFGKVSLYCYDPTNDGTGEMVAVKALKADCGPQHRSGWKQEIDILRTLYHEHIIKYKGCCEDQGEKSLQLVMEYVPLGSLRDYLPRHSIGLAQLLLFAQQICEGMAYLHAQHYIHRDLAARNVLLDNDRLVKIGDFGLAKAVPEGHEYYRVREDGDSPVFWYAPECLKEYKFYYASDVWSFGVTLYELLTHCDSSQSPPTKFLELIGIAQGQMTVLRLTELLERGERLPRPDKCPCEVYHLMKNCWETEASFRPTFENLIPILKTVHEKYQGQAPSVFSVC

With `Cn1cc(Nc2ncc(Cl)c(NC[C@H]3CCCN3CC#N)n2)cn1` [Example 131, (R)-2-(2-(((5-chloro-2-((1-methyl-1H-pyrazol-4-yl)amino)pyrimidin-4-yl)amino)methyl)pyrrolidin-1-yl)acetonitrile], the IC50 on JAK1 was less than 100 nM; on JAK2, 100 to 1000 nM; at JAK3 it was less than 100 nM; at TYK2 it was less than 100 nM. The “Selectivity ratio over JAK2, JAK3” value at JAK3 (JAK3 over JAK2) is “JAK3 = 85”.

For `Cn1cc(Nc2ncc(F)c(NC[C@H]3CCCN3CCC#N)n2)cn1` [Example 112, (R)-3-(2-(((5-fluoro-2-((1-methyl-1H-pyrazol-4-yl)amino)pyrimidin-4-yl)amino)methyl)pyrrolidin-1-yl)propanenitrile], the IC50 at JAK1 was 100 to 1000 nM; at JAK2 it was 1000 to 10000 nM; on JAK3 it was 100 to 1000 nM; on TYK2, less than 100 nM. Moreover, the “Selectivity ratio over JAK2, Tyk2” value on TYK2 is “Tyk2 = 53”.

Turning to `CC(=O)N1CC(CNc2nc(Nc3cnn(C)c3)ncc2Cl)C1` [Example 16, 1-(3-(((5-chloro-2-((1-methyl-1H-pyrazol-4-yl)amino)pyrimidin-4-yl)amino)methyl)azetidin-1-yl)ethanone], the IC50 at JAK1, on JAK2, on JAK3 and on TYK2 was more than 10000 nM each time.

Take `CN1C(=O)CCC1CNc1nc(Nc2cnn(C)c2)ncc1Cl` (stereo not shown) [Example 78, 5-(((5-chloro-2-((1-methyl-1H-pyrazol-4-yl)amino)pyrimidin-4-yl)amino)methyl)-1-methylpyrrolidin-2-one]: the “Selectivity ratio over JAK2, JAK1” value at JAK1 is listed as “JAK1 = 38”. The IC50 was 100 to 1000 nM on JAK1, 1000 to 10000 nM at JAK2, 1000 to 10000 nM on JAK3 and 100 to 1000 nM on TYK2.

For the compound `CS(=O)(=O)N1CC[C@H](CNc2nc(Nc3cnn(CCO)c3)ncc2Cl)C1` [Example 85, (R)-2-(4-((5-chloro-4-(((1-(methylsulfonyl)pyrrolidin-3-yl)methyl)amino)pyrimidin-2-yl)amino)-1H-pyrazol-1-yl)ethanol], on JAK1, the “Selectivity ratio over JAK2, JAK1” value is on record as “JAK1 = 27”. For the same compound, the IC50 on JAK1 is less than 100 nM; at JAK2, 100 to 1000 nM; at JAK3, 100 to 1000 nM; at TYK2 it was less than 100 nM.

Regarding `C=CC(=O)N1CC[C@@H](CNc2nc(Nc3cnn(C)c3)ncc2Cl)C1` [Example 28, (S)-1-(3-(((5-chloro-2-((1-methyl-1H-pyrazol-4-yl)amino)pyrimidin-4-yl)amino)methyl)pyrrolidin-1-yl)prop-2-en-1-one], the IC50 at JAK1 was 1000 to 10000 nM; at JAK2, more than 10000 nM; on JAK3, 100 to 1000 nM; at TYK2, 1000 to 10000 nM.

In the case of `CC(=O)N1CCC[C@H]1CNc1nc(Nc2cnn(C)c2)ncc1Cl` [Example 8, (S)-1-(2-(((5-chloro-2-((1-methyl-1H-pyrazol-4-yl)amino)pyrimidin-4-yl)amino)methyl)pyrrolidin-1-yl)ethanone], on JAK1, the “Selectivity ratio over JAK2, JAK1” value was “JAK1 = 17”. In addition, the IC50 fell in the range of 100 to 1000 nM at JAK1, 1000 to 10000 nM at JAK2, 100 to 1000 nM at JAK3 and 100 to 1000 nM at TYK2.

As for `Cn1cc(Nc2ncc(Cl)c(NC[C@@H]3CCCN3S(C)(=O)=O)n2)cn1` [Example 12, (S)-5-chloro-N^2-(1-methyl-1H-pyrazol-4-yl)-N^4-((1-(methylsulfonyl)pyrrolidin-2-yl)methyl)pyrimidine-2,4-diamine], the “Selectivity ratio over JAK2, JAK1” value on JAK1 is recorded as “JAK1 = 12”. The IC50 is less than 100 nM on JAK1, 100 to 1000 nM on JAK2, less than 100 nM at JAK3 and less than 100 nM on TYK2.

With `CS(=O)(=O)N1CCC[C@@H]1CNc1nc(Nc2cnn(CCO)c2)ncc1Cl` [Example 6, (R)-2-(4-((5-chloro-4-(((1-(methylsulfonyl)pyrrolidin-2-yl)methyl)amino)pyrimidin-2-yl)amino)-1H-pyrazol-1-yl)ethanol], the IC50 at JAK1 is less than 100 nM; on JAK2 it was 100 to 1000 nM; at JAK3 it was less than 100 nM; on TYK2, less than 100 nM. In addition, the “Selectivity ratio over JAK2, Tyk2” value at TYK2 was “Tyk2 = 11”.

What is called IC50 is the midpoint of a concentration-inhibition curve.
